According to patent publication US7557110B2, “Pyrazolo[1,5-A] pyrimidine derivatives” (Teijin Pharma Limited, priority 2003, dated 2009):
Read-outs that look alike come from different tables or passages of the source.

Key:
CDK-2 = CDK-2 (Homo sapiens, UniProt P24941); test: CDK-2 enzyme activity inhibition (33P-ATP filter plate kinase assay); assay type: biochemical
Source text: [General Procedure for Measurement of CDK-2 Enzyme Activity Inhibition]

MAPKAP-K2 = MAPKAP-K2 (Homo sapiens, UniProt P49137); test: MAPKAP-K2 enzyme activity inhibition (33P-ATP filter plate kinase assay); assay type: biochemical; details: MAPKAP-K2 inhibitory activity; assays conducted at typically 1-100 μM; also: key: +: active; ++: more active; +++: very active
Sequence of MAPKAP-K2 (P49137 whole entry): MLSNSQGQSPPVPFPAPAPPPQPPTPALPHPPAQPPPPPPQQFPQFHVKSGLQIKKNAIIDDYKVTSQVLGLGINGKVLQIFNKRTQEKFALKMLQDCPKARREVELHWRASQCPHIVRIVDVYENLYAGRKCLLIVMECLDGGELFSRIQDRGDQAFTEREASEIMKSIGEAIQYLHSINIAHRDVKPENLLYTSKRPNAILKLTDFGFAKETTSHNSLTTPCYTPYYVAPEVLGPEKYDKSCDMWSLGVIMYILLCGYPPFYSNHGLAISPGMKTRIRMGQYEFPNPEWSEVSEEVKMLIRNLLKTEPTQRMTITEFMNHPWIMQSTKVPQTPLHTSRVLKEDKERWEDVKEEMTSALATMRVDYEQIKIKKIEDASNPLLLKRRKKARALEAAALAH
Method: [General Procedure for Measurement of MAPKAP-K2 Enzyme Activity Inhibition]
After conducting the reaction for 30 minutes at room temperature, an equivalent volume of a 200 mM phosphoric acid solution was added to suspend the reaction, and 90 μL of the reaction product was adsorbed onto a MultiScreen PH plate (Millipore) and rinsed with a 100 mM phosphoric acid solution. After drying the plate, 30 μL of MicroScint-O (Packard BioScience) was added, and the cpm was measured with a scintillation counter to determine the inhibiting activity. Substrate peptide is […]

[1] = read-out: CDK-2 inhibition IC50

Row | IC50 (CDK-2; [1]) [µM] | melting point | activity (efficacy against MAPKAP-K2) (MAPKAP-K2) | IC50 (CDK-2) [µM] | Structure (SMILES)
1 | < 100 | 224 to 226 °C (dec.) | – | – | Cc1nn2c(Nc3ccc(F)c(Cl)c3)cc(N[C@H]3CC[C@H](N)CC3)nc2c1Br [Compound 6]
2 | < 100 | 63 to 65 °C | ++ | – | CCc1c(N[C@H]2CC[C@H](N)CC2)nc2ccnn2c1NCc1ccccc1Cl [Compound 38]
3 | < 100 | 91 to 93 °C | ++ | – | C=C(C)CNc1c(CC)c(N[C@H]2CC[C@H](N)CC2)nc2ccnn12 [Compound 46]
4 | < 100 | 153 to 155 °C | ++ | – | N[C@H]1CC[C@H](Nc2cc(Nc3ccc(F)c(Cl)c3)n3ncc(I)c3n2)CC1 [Compound 49]
5 | < 100 | 116 to 118 °C | +++ | – | CCCCOc1ccc(Nc2c(CCCO)c(N[C@H]3CC[C@H](N)CC3)nc3ccnn23)cc1 [Compound 53]
6 | < 100 | 189 to 192 °C | +++ | – | CCc1c(N[C@H]2CC[C@H](N)CC2)nc2ccnn2c1Nc1ccc(OC)c(Cl)c1 [Compound 55]
7 | < 100 | 144 to 148 °C | +++ | – | CCCCOc1ccc(Nc2c(CC)c(N[C@H]3CC[C@H](N)CC3)nc3ccnn23)cc1 [Compound 56]
8 | < 100 | 102 to 104 °C | +++ | – | CCc1c(N[C@H]2CC[C@H](N)CC2)nc2ccnn2c1Nc1ccc(Oc2ccc(C)cc2)cc1 [Compound 57]
9 | < 100 | 181 to 185 °C | ++ | – | CCc1c(N[C@H]2CC[C@H](N)CC2)nc2ccnn2c1Nc1ccc(OC)c(OC)c1 [Compound 58]
10 | < 100 | 199 to 201 °C | +++ | – | CCc1c(N[C@H]2CC[C@H](N)CC2)nc2ccnn2c1Nc1cccc(I)c1 [Compound 60]
11 | < 100 | 150 to 152 °C | +++ | – | CCOc1cccc(Nc2c(CC)c(N[C@H]3CC[C@H](N)CC3)nc3ccnn23)c1 [Compound 61]
12 | < 100 | 185 to 187 °C | +++ | – | CSc1ccc(Nc2c(C)c(N[C@H]3CC[C@H](N)CC3)nc3ccnn23)cc1 [Compound 65]
13 | < 100 | 215 to 216 °C | +++ | – | Cc1c(N[C@H]2CC[C@H](N)CC2)nc2ccnn2c1Nc1cccc(Br)c1 [Compound 77]
14 | < 100 | 209 to 212 °C | +++ | – | Cc1c(N[C@H]2CC[C@H](N)CC2)nc2ccnn2c1Nc1cccc(Cl)c1 [Compound 85]
15 | < 100 | 145 to 150 °C | +++ | – | Cc1c(N[C@H]2CC[C@H](N)CC2)nc2ccnn2c1Nc1cccc(O)c1 [Compound 88]
16 | < 100 | 101 to 104 °C | – | – | CCOc1ccc(Nc2c(C)c(N[C@H]3CC[C@H](N)CC3)nc3c(CO)cnn23)cc1 [Compound 92]
17 | < 100 | 97 to 100 °C | +++ | – | Cc1c(N[C@H]2CC[C@H](N)CC2)nc2ccnn2c1Nc1cccc(CO)c1 [Compound 97]
18 | < 100 | 96 to 99 °C | +++ | – | Cc1c(N[C@H]2CC[C@H](N)CC2)nc2ccnn2c1Nc1ccccc1 [Compound 102]
19 | < 100 | 100 to 108 °C | +++ | – | Cc1c(N[C@H]2CC[C@H](N)CC2)nc2ccnn2c1Nc1ccc2ncsc2c1 [Compound 112]
20 | < 100 | 181 to 183 °C | ++ | – | CCc1c(N[C@H]2CC[C@H](N)CC2)nc2ccnn2c1Nc1ccc(OC)c(C(F)(F)F)c1 [Compound 113]
21 | < 100 | 165 to 168 °C | +++ | – | CC(C)c1c(N[C@H]2CC[C@H](N)CC2)nc2ccnn2c1Nc1ccc(F)c(Cl)c1 [Compound 115]
22 | < 100 | – | +++ | – | Cc1c(N[C@H]2CC[C@H](N)CC2)nc2ccnn2c1Nc1ccc(-c2ccc(C(F)(F)F)cc2)cc1 [Compound 350]
23 | < 100 | – | +++ | – | CCS(=O)(=O)c1ccc(-c2ccc(Nc3c(C)c(N[C@H]4CC[C@H](N)CC4)nc4ccnn34)cc2)cc1 [Compound 351]
24 | < 100 | – | +++ | – | Cc1c(N[C@H]2CC[C@H](N)CC2)nc2ccnn2c1Nc1ccc(-c2ccc(CO)cc2)cc1 [Compound 352]
25 | < 100 | – | +++ | – | Cc1c(N[C@H]2CC[C@H](N)CC2)nc2ccnn2c1Nc1ccc(-c2cccc(CO)c2)cc1 [Compound 353]

Row | IC50 (CDK-2; [1]) [µM] | melting point | activity (efficacy against MAPKAP-K2) (MAPKAP-K2) | IC50 (CDK-2) [µM] | Structure (SMILES)
26 | < 100 | – | +++ | – | COCc1cccc(-c2ccc(Nc3c(C)c(N[C@H]4CC[C@H](N)CC4)nc4ccnn34)cc2)c1 [Compound 354]
27 | < 100 | – | +++ | – | CC(=O)c1ccc(-c2ccc(Nc3c(C)c(N[C@H]4CC[C@H](N)CC4)nc4ccnn34)cc2)s1 [Compound 355]
28 | < 100 | – | +++ | – | CCOc1ccc(-c2ccc(Nc3c(C)c(N[C@H]4CC[C@H](N)CC4)nc4ccnn34)cc2)cc1 [Compound 356]
29 | < 100 | – | +++ | – | Cc1csc(-c2ccc(Nc3c(C)c(N[C@H]4CC[C@H](N)CC4)nc4ccnn34)cc2)c1 [Compound 357]
30 | < 100 | – | ++ | – | CCOc1ccc(Nc2c(C)c(N[C@H]3CC[C@H](N)CC3)nc3c(C(=O)Nc4ccccn4)cnn23)cc1 [Compound 359]
31 | < 100 | – | ++ | – | CCCCC(=O)c1cnn2c(Nc3ccc(OCC)cc3)c(C)c(N[C@H]3CC[C@H](N)CC3)nc12 [Compound 362]
32 | < 100 | – | ++ | – | CCOc1ccc(Nc2c(C)c(N[C@@H]3CCNC3)nc3ccnn23)cc1 [Compound 412]
33 | < 100 | – | + | – | Cc1c(N[C@H]2CC[C@H](N)CC2)nc2c(C(=O)C(F)(F)F)cnn2c1Nc1ccc(I)cc1 [Compound 417, 1-{5-[(trans-4-aminocyclohexyl)amino]-7-[(4-iodophenyl)amino]-6-methyl(pyrazolo[1,5-a]pyrimidin-3-yl)}-2,2,2-trifluoroethan-1-one]
34 | < 100 | – | ++ | – | CCOc1ccc(Nc2c(C)c(N[C@@H]3CCN(Cc4ccccc4)C3)nc3ccnn23)cc1 [Compound 418]
35 | < 100 | – | +++ | – | Cc1cscc1-c1ccc(Nc2c(C)c(N[C@H]3CC[C@H](N)CC3)nc3ccnn23)cc1 [Compound 421]
36 | < 100 | – | +++ | – | Cc1c(N[C@H]2CC[C@H](N)CC2)nc2ccnn2c1Nc1ccc(-c2cn[nH]c2)cc1 [Compound 422]
37 | < 100 | – | +++ | – | Cc1c(N[C@H]2CC[C@H](N)CC2)nc2ccnn2c1Nc1ccc(-c2cc3ccccc3[nH]2)cc1 [Compound 423]
38 | < 100 | – | + | – | CCOc1ccc(Nc2c(C)c(N[C@H]3CC[C@H](N)CC3)nc3c(NC)cnn23)cc1 [Compound 437]
39 | < 100 | – | +++ | – | Cc1c(N[C@H]2CC[C@H](N)CC2)nc2c(F)cnn2c1Nc1ccc(I)cc1 [Compound 441, {5-[(trans-4-aminocyclohexyl)amino]-3-fluoro-6-methyl(pyrazolo[1,5-a]pyrimidin-7-yl)}(4-iodophenyl)amine]
40 | < 100 | – | +++ | – | Cc1c(NC2CCCNC2)nc2ccnn2c1Nc1ccc(-c2cccc(N)c2)cc1 (stereo not drawn) [Compound 444]
41 | < 100 | – | +++ | – | Cc1c(NC2CCCNC2)nc2ccnn2c1Nc1ccc(-c2cccc(CO)c2)cc1 (stereo not drawn) [Compound 445]
42 | < 100 | – | +++ | – | CNC(=O)c1ccc(Nc2c(C)c(N[C@H]3CC[C@H](N)CC3)nc3ccnn23)cc1 [Compound 460]
43 | < 100 | – | +++ | – | Cc1c(N[C@H]2CC[C@H](N)CC2)nc2ccnn2c1Nc1ccc(C(=O)NC2CCCC2)cc1 [Compound 463]
44 | < 100 | – | +++ | – | Cc1c(N[C@H]2CC[C@H](N)CC2)nc2ccnn2c1Nc1ccc(C(=O)NCc2ccco2)cc1 [Compound 511]
45 | < 100 | – | ++ | – | CCOc1ccc(Nc2c(C)c(N[C@@H]3CN[C@@H](C(=O)O)C3)nc3ccnn23)cc1 [Compound 772]
46 | – | – | +++ | < 100 | CC(=O)c1ccc(-c2ccc(Nc3c(C)c(N[C@H]4CCCNC4)nc4ccnn34)cc2)s1 [Compound 773]
47 | < 100 | – | +++ | – | Cc1c(N[C@H]2CC[C@H](N)CC2)nc2ccnn2c1Nc1ccc(C(=O)Nc2ccccc2)cc1 [Compound 776]
48 | < 100 | – | +++ | – | Cc1c(N[C@H]2CC[C@H](N)CC2)nc2ccnn2c1Nc1ccc(C(=O)c2ccccc2)cc1 [Compound 778]
49 | < 100 | – | +++ | – | Cc1c(N[C@H]2CC[C@H](N)CC2)nc2ccnn2c1Nc1ccc(OC(F)(F)F)c(Cl)c1 [Compound 785]
